Experimental data from patent US12522596B2, “Compounds as GLP-1R agonists” (Terns Pharmaceuticals, Inc., priority 2021, dated 2026).
Entries after “also recorded” stand apart in the source; their conditions may differ.

Tests used:
[1] = tested on: C57BL/6 mice expressing human GLP-1R (hGLP-1R); assay: Food intake in humanized mouse model; assay type: in vivo; conditions: hGLP-1R mice, relative to vehicle control; Compound 2 10, 30, 60 mg/kg PO
Description: The ability of compounds disclosed herein to modify the food intake of C57BL/6 mice expressing human GLP-1R (hGLP-1R) was evaluated.
The dose protocol used in this study is described in Table 6.
Acclimation and grouping: Mice were acclimated for QD PO dosing with vehicle for 4 days, baseline body weight and food intake were measured for 4 consecutive days. Animals were allocated into 8 groups based on body weight and 3rd day's food intake.
Dose body weight and food intake measurement: All animals were placed in clean cages with sawdust bedding and fasted overnight, mice were dosed with vehicle or test compound in the morning. All group's food was added 15 minutes post dosing, food remaining was recorded at 2-, 4-, 6-, 8-, 10- and 24-h post dosing. (FIG. 4) Body weight was determined on a daily basis during the study.
Data processing and analysis: Manual data were transferred into an excel spreadsheet. All values were expressed as mean±S.E.M. The significances of the differences among groups and within groups are evaluated by one-way or two-way ANOVA using Graph Pad statistic software. A p-value of less than 0.05 was considered statistically significant.

[2] = Rat pharmacokinetics, intravenous dosing; assay type: in vivo, Sprague-Dawley rats; conditions: for AUC(0-t) / Cmax / clearance / half-life: male, Sprague-Dawley, rat plasma, 1 mg/kg IV (0.5 mg/mL)
Description: Intravenous dosing: Compounds were formulated at 0.5 mg/mL in a solution comprising 5% polyethylene glycol 400 and 95% (12% (w/v) sulfobutyl-β-cyclodextrin in water) (v/v). Formulated compounds were sterile filtered through a 0.22 micron filter before dosing. Compounds were administered to male, 7-11-week-old Sprague-Dawley rats by jugular vein cannula infusion over 30 minutes at a dose of 1 mg/kg.
(§1) Sample collection: Blood collections of about 0.2 mL per time point were performed from jugular vein or other suitable site of each animal, into pre-chilled commercial EDTA-K2 tubes and placed on wet ice until centrifugation. Blood samples were processed for plasma by centrifugation at approximately 4° C., 3,200 g for 10 min. Plasma was collected and transferred into pre-labeled 96 well plate or polypropylene tubes, quick frozen over dry ice and kept at −60° C. or lower until LC-MS/MS analysis.
(§2) Data analysis: Plasma concentration versus time data was plotted in graph and analyzed by non-compartmental approaches using the Phoenix WinNonlin 6.3 software program. Related PK parameters were calculated according to dosing route, e.g., CL, Vdss and C0 for intravenous administration, Cmax, Tmax or % F for extravascular administration, and T1/2, AUC(0-t), AUC(0-inf), MRT(0-t), MRT(0-inf) for all routes.

[3] = Rat pharmacokinetics, oral dosing; assay type: in vivo, Sprague-Dawley rats; conditions: rat; for AUC(0-t) / Cmax / half-life: male, Sprague-Dawley, plasma, po, 3 mg/kg, rat plasma
Description: Oral dosing: Compounds were formulated at 0.3 mg/mL or 0.6 mg/mL in a solution comprising 5% polyethylene glycol 400 and 95% (12% (w/v) sulfobutyl-β-cyclodextrin in water) (v/v). Formulated compounds were administered to male, 7-11 week old Sprague-Dawley rats by oral gavage at a dose of 3 mg/kg.
as §1, §2

[4] = rat, intravenous administration

SMILES | food intake [1] | AUC(0-t) [2] [ng·h/mL] | Cmax [2] [ng/mL] | clearance [2] [mL/min/kg] | half-life [2] [h] | longer t1/2 as compared with Reference Compound A [2, 4] [fold] | lower clearance as compared with Reference Compound A [2, 4] [%] | AUC(0-t) ([3]; 3 mg/kg PO (0.3 mg/mL)) [ng·h/mL] | Cmax ([3]; 3 mg/kg PO (0.3 mg/mL)) [ng/mL] | half-life ([3]; 3 mg/kg PO (0.3 mg/mL)) [h] | AUC(0-t) ([3]; 3 mg/kg PO (0.6 mg/mL)) [ng·h/mL] | Cmax ([3]; 3 mg/kg PO (0.6 mg/mL)) [ng/mL] | half-life ([3]; 3 mg/kg PO (0.6 mg/mL)) [h] | PK properties relative to Reference Compound A ([3]; dosed orally) | higher AUC relative to Reference Compound A ([3]; oral administration)
N#Cc1ccc(COc2cccc(C3CCN(Cc4nc5ccc(C(=O)O)cc5n4Cc4cncs4)CC3)n2)c(F)c1 [Compound 2] | reduction in food intake; also recorded: significantly suppressed food intake | 427 ± 27.7 | 596 ± 42.3 | 38.8 ± 2.55 | 1.57 ± 0.583 | ~2 | 30 | 384 ± 182 | 117 ± 61 | 3.3 ± 0.44 | 525 ± 138 | 491 ± 256 | 2.66 ± 1.74 | significantly enhanced PK properties | 4-6 fold
Cc1ncsc1Cn1c(CN2CCC(c3cccc(OCc4ccc(C#N)cc4F)n3)CC2)nc2ccc(C(=O)O)cc21 [Compound 4] | – | – | – | – | – | – | – | 28.3 ± 21.7 | 21.6 ± 9.8 | 0.96 ± 0.33 | – | – | – | – | –
N#Cc1ccc(COc2cccc(C3CCN(Cc4nc5ccc(C(=O)O)cc5n4C[C@@H]4CCO4)CC3)n2)c(F)c1 [Reference Compound A, reference compound] | reduction in food intake | 325 ± 16.8 | 486 ± 37.9 | 51.2 ± 2.59 | 0.613 ± 0.344 | – | – | 60.6 ± 9.01 | 37.7 ± 8.09 | 2 ± 1.07 | 121 ± 36.9 | 102 ± 57 | 1.68 ± 0.44 | – | –
